A short description of this data set: Solubility observations. The data set is classed as physicochemical. As to the method:
To a 100 mL round-bottomed flask with a magnetic stirrer was added (2) (5.90 g, 22.67 mmol), maltol (3.57 g, 28.34 mmol), and 30 mL of acidic 2-ethoxyethanol (49:1 ethoxyethanol/12M HCl). The reaction vessel was fitted with a water-cooled condenser and the mixture heated to reflux for 64 h. The resulting suspension was vacuum-filtered while hot and the solids washed with water (50 mL), followed by acetone (50 mL), to afford the crude product as a fine brown solid. […] HRMS-ESI (m/z): [M+H]^+ calculated for C19H17N2O6 369.1081. found 369.1084.
In a typical experiment, an aqueous stock solution of DABA-bis-HP-N3 was prepared consisting of 2.28 mM ligand and 24.5 mM NaOH. […] A stock solution of Fe(NO3)3.9H2O was prepared consisting of 10.80 mM Fe^3+ and 4 mM HCl (as stabilizer). To a glass vial was added 877 μL ligand stock solution, followed by 1 mL Milli-Q H2O, followed by 123 μL Fe(III) stock and the resulting orange-red mixture (2 mL) shaken for 10 minutes. The as-synthesized particles have a mean diameter ranging from 10-20 nm (DLS). Particles were purified by filtration through an Amicon Ultra 15 mL centrifugal filter with a nominal molecular weight cutoff (MWCO) of 100 kDa, washing with 3×3 mL portions of Milli-Q H2O, spinning at 5000 rcf for 10 minutes each. The particles were resuspended in 2 mL of H2O to give an approximate azide concentration of 1 mM. The particle solution was lyophilized and the resulting dark red powder characterized by FTIR (KBr), showing the characteristic azide stretch at 2093 cm^−1 is retained after the nanoparticle synthesis.

The results in this text go back to patent publication US9617541B2, “Biocompatible infinite coordination polymer nanoparticle-nucleic acid conjugates for antisense gene regulation” (NORTHWESTERN UNIVERSITY, priority 2014, dated 2017).

Regarding `Cc1c(O)c(=O)ccn1-c1cc(C(=O)O)cc(-n2ccc(=O)c(O)c2C)c1` [compound 3, Diaminobenzoic Acid Bis-Hydroxypyridinone], the “solubility in hot DMSO and DMF” value (hot DMSO and DMF) is “soluble”. Also, the solubility in methanol result (methanol) was “sparingly soluble”. Consider `Cc1c(O)c(=O)ccn1-c1cc(C(=O)NCCCCN=[N+]=[N-])cc(-n2ccc(=O)c(O)c2C)c1` [compound 4, Diaminobenzoic Acid Bis-HP Azide], for which the solubility in water result (water, as disodium salt) is given as “freely soluble”.
